What was measured:
NF-kB = NF-kB luciferase reporter activity in melanoma cells; assay type: cell-based, human; conditions: A375, 4 days; PGJ2 1.5 μM, Bay 11-7082 2 μM, sulfasalazine 50 μM (FIG. 8A)
Experimental: Cells were transfected with NF-kB-luciferase reporter (NF-kB-Luc, Qiagen Germantown Md.) sensitive to overall NF-kB activation and with CMV promoter b-Galactosidase (pCMVβGal) for normalization purpose. Lipofectamine 2000 (Invitrogen, Carlsbad, Calif.) was used as transfection agent. 48 hrs post transfection, luciferase activity was tested using the luciferase assay system kit (Promega) and measured with the Clarity Luminescence Microplate Reader (Bio-Tek Instruments, Winooski, Vt.).
For gene reporter activity post gene silencing using RNA interference, cells were first transfected with SiRNAs according to experimental design using as transfecting agent Lipofectamine RNAimax as previously described. 24 hrs post transfection cells were again transfected using EZH2 promoter Renilla construct or NF-kB-luciferase reporter and pCMVβGal. 48 hrs after addition of the reporter plasmid, cells were harvested and luciferase or Renilla activity measured as above mentioned.

EZH2 [1] = test: Western blot of EZH2 protein in melanoma cell lines; assay type: cell-based, human; conditions: metastatic melanoma cell lines carrying or not B-RAF V600E; PGJ2 2 μM 3 days, Bay 11-7082 2 μM 4 days
Experimental: Western Blot: Twenty to thirty micrograms of total proteins were run on 12% SDS-polyacrylamide gel electrophoresis. After transfer to polyvinylidene fluoride membrane (Millipore), immunoblotting was performed according to Laemli method. Glyceraldehyde-3-phosphate dehydrogenase (GAPDH), β-Actin or ERK2 were used as loading controls. Membranes were then incubated with an enhanced chemiluminescence system (Amersham) and immunoreactive bands were visualized using the luminescent image analyzer Fujifilm LAS-4000 (GE Healthcare).

EZH2 [2] = test: qRT-PCR analysis of EZH2 mRNA in A375 cells; assay type: cell-based, human; conditions: for EZH2 mRNA: A375 cells treated for 3 days (FIG. 1B)
Experimental: Transfection experiments with Small interfering RNAs (siRNAs): Typically 30 000 to 50 000 cells were plated in 6-well culture plates and transfected 24 hours later with 25 nM or 50 nM siRNAs using Lipofectamine RNAimax (Invitrogen) according to manufacturer protocol. If not otherwise described cells were incubated with the si-RNA for 4 days prior harvesting for further experiments. […] As non specific control, a scramble sequence siRNA was used (cat. 16106, Ambion, Life Technologies, Grand Island, N.Y.).
(§1) Quantitative RT-PCR analysis: Total RNA was isolated from cells using RNAeasy minikit (Qiagen) according to manufacturer's procedure. Reverse transcription was performed using AMV reverse transcription system (Promega) while quantitative PCR was performed with Power Sybr green (Applied biosystem, Life Technologies, Grand Island, N.Y.) following manufacturer instructions (List of primers are available in supplementary information). PCR reaction was carried on a Step One plus Real-Time PCR system (Applied Biosystems). All analyses were done in triplicate and melting curve analysis was performed to control for product quality and specificity. Expression levels were calculated using the comparative method of relative quantification, with SB34 as normalizer. Data were analyzed for their statistical significance applying Student's t-test. Results are presented as mean±SEM relative to the control.
(§2) Transcription Factor Decoys (TFD) preparation and treatment. Double stranded TFDs were obtained by annealing at 95 C two complementary single stranded oligos (purchased from Invitrogen). TFDs were designed by copying the NF-kB2 sequences discovered on the EZH2 promoter (i.e. p52 decoy referred as and TFD4 as previously described). […] If not otherwise described cells were incubated with the TFDs for 4 days prior harvesting for qPCR evaluation of EZH2 levels or Senescence associated-β-Gal assay. As non specific control, a scramble sequence was used.

EZH2 [3] = test: EZH2 level in melanoma cells cultured from patients' metastases; assay type: cell-based, human; conditions: melanoma cells from nine patients' metastases, PGJ2 2 μM 3 days / 1.5 μM 4 days
Experimental: Cell Culture: HEK293, Human A375 (CRL-1619), SK-Mel-28 (HTB-72) and MeWo (HTB-65) melanoma cell lines were purchased from American Tissue Culture Collection (Molsheim, France). Human primary melanoma cells were extracted from metastatic melanoma specimens that were obtained from the Department of Dermatology and the Biobank of the University hospital of Nice, France. All patients provided informed written consent. Biopsy was dissected and digested for 1-2 h with collagenase A (0.33 U/ml), dispase (0.85 U/ml) and Dnase I (144 U/ml) with rapid shaking at 37° C. Large debris were removed by filtration through a 70-μm cell strainer. Viable cells were obtained by Ficoll gradient centrifugation. […]
as §1, with “PCR reaction was carried on a Step One plus Real-Time PCR system (Applied Biosystems). All analyses were done in triplicate and melting curve analysis was performed to control for product quality and specificity.” left out, “Results are presented as mean±SEM relative to the control.” left out

melanoma = conditions: cited from earlier work
A375 melanoma cells = test: Senescence associated-β-Gal assay; assay type: cell-based, human; conditions: 4 days
Experimental: Senescence associated-β-Gal assay: Cells were washed then fixed for 15 min at RT and stained using the Senescence β-Galactosidase staining kit following manufacturer instruction (Cell Signaling, Beverly, Mass.). A blue color reflects the β-Gal activity.
as §2

| Compound | NF-kB activity (NF-kB) | EZH2 at protein level (EZH2 [1]) | EZH2 mRNA (EZH2 [2]) | senescence / SA-β-Gal activity (A375 melanoma cells) | further results |
| --- | --- | --- | --- | --- | --- |
| Cc1ccc(S(=O)(=O)/C=C/C#N)cc1 [Bay 11-7082] | inhibition of NF-kB activity | decrease of EZH2 at protein level | marked decrease |  |  |
| CCCCC/C=C/C=C1/C(=O)C=C[C@@H]1C/C=C\CCCC(=O)O [PGJ2, 15-deoxy-delta12,14-Prostaglandin J2] | inhibition of NF-kB activity | decrease of EZH2 at protein level | marked decrease |  | start of effect on EZH2 mRNA (EZH2 [2]; A375, time and dose dependent (FIG. 1C)): ≤ 6 h; EZH2 protein level (EZH2 [3]): consistent decrease of EZH2 |
| O=C(O)c1cc(/N=N/c2ccc(S(=O)(=O)Nc3ccccn3)cc2)ccc1O [sulfasalazine] | inhibition of NF-kB activity | decrease of EZH2 at protein level | marked decrease |  |  |
| Ipilimumab: anti-CTLA-4 antibody used for the treatment of melanoma |  |  |  |  | patients responding to treatment (melanoma; melanoma patients): 10%; overall survival (melanoma; stage 4 melanoma patients): increased the overall survival |
| TFD1: p52 decoy, double stranded DNA ODN: forward ATCGGGTCTCC (SEQ ID NO: 6), reverse GGAGAGCCCGAT (SEQ ID NO: 7) (DNA, backbone and methylation of C not given here) |  |  |  | induce senescence |  |
| TFD4: p52 decoy, double stranded DNA ODN: forward ATCGGGGCTCACC (SEQ ID NO: 8), reverse GGTGAGCCCCGAT (SEQ ID NO: 9) (DNA, backbone and methylation of C not given here) |  |  |  | induce senescence |  |
